Source: patent publication US9724354B2, “Combination of catalytic mTORC1/2 inhibitors and selective inhibitors of Aurora A kinase” (Millennium Pharmaceuticals, Inc., priority 2013, dated 2017)

What was measured:
[1] = tested on: PHTX-14B breast xenograft; assay: In vivo tumor efficacy, PHTX-14B breast xenograft model; design: species or system female Balb/c nude mice; details: for Average tumor volume at day 21: PO
Excerpt: (§1) The PHTX-14B breast xenograft model was established from a patient-derived tumor collected during surgery from a person with ductal carcinoma classified as triple negative breast cancer (ER−/PR−/Her2−) by IHC. PHTX-14B tumor fragments (approximately 2×2×3 mm^3) at passage 7 are implanted into the subcutaneous space in the right dorsal flank of female Balb/c nude mice (age 4-6 weeks, Shanghai SINO-British SIPPR/BK Lab Animal Ltd) using a 13-gauge trocar tumor implantation needle.
(§2) MLN8237 was formulated in 10% HPbCD+1% NaHCO3 and administered by oral injection (1 cc syringe, 20-22 gauge, oral gavages needle) on QD schedule at 3 mg/kg and 20 mg/kg for 21 days. MLN8237 as used in the experimental section refers to sodium 4-{[9-chloro-7-(2-fluoro-6-methoxyphenyl)-5H-pyrimido[5,4-d][2]benzazepin-2-yl]amino}-2-methoxybenzoate monohydrate and the amount referenced is the amount of alisertib dosed. MLN8237 is dosed 24 hours prior to MLN0128 in all three models.
(§3) MLN0128 is formulated in 100% PEG400 and administered by oral injection (1 cc syringe, 20-22 gauge, oral gavages needle) on QD schedule at 0.3 mg/kg for 21 days. 1 mg/kg QD×3/weeks for 3 weeks. MLN0128 is dosed 24 hours after MLN8237 dosing.
(§4) Tumors are measured twice weekly using a vernier caliper. Tumor volumes are calculated using standard procedures (0.5×(length×width^2)). When the tumors reached a volume of approximately 200 mm^3 (PHTX-14B, PHTX-147B) or 167 mm^3 (SUM-149PT), mice are randomized into groups of 8 as described in the tables below, and dosed with vehicle, MLN8237 or MLN0128 or the combination of MLN8237 with MLN0128, at various doses as described below in Tables 8a-10a. Tumor size and body weight are measured approximately twice a week for the duration of the study. Mice are euthanized when their tumor volume reached 10% of their body weight, or when the average tumor volume of a treatment or control group reached approximately 2000 mm^3. Tumor growth continued to be monitored after the dosing period in some studies. Average tumor volume is reported as a function of time for selected groups of selected studies in FIGS. 3, 4 and 5.
(§5) Measurements from day 0 to 21 are analyzed as specified in Tables 8a-10a. All tumor volumes have a value of 1 added to them before log10 transformation. For each animal, the log tumor volume at day 0 is subtracted from the log tumor volume on the subsequent days. This difference vs. time is used to calculate an area under the curve (AUC) for each animal using the trapezoid rule. In instances when an animal in a treatment group is removed early from the study, the last observed tumor value is carried forward through all subsequent time points. The synergy score for the combination of agents A and B is defined as: 100*(mean(AUCAB)−mean(AUCA)−mean(AUCB)+mean(AUCctl))/mean(AUCctl): where AUCAB, AUCA, AUCB, and AUCctl are the AUC values for animals in the combination group, the A group, the B group, and the control group, respectively. The standard error of the synergy score is computed based on the variation in the AUC values among the animals. […] If the P-value is above 0.05, then the combination is considered to be additive. If the P-value is below 0.05, and the synergy score is less than zero, then the combination is considered to be synergistic. […] Otherwise, the combination is classified as antagonistic.

[2] = tested on: PHTX-147B breast xenograft; assay: In vivo tumor efficacy, PHTX-147B breast xenograft model; design: species or system female Balb/c nude mice; details: PO
Excerpt: as §1, with “PHTX-147B” for “PHTX-14B”, “Ltd.).” for “Ltd) using a 13-gauge trocar tumor implantation needle.”
as §2, §3, §4, §5

[3] = tested on: SUM-149PT breast xenograft; assay: In vivo tumor efficacy, SUM-149PT breast xenograft model; design: species or system Balb/c Nude mice; details: PO
Procedure: SUM-149PT (5×10^6) is a tumor cell line grown in Ham's F12 (BD Biosciences) media with 5% FBS, supplemented with 5 μg/ml insulin and 1 μg/ml hydrocortisone media mixed with an equal volume of Matrigel (BD Biosciences). Cell suspension at passage 84 was aseptically injected into the subcutaneous space in the right dorsal flank of Balb/c Nude mice (age 8 weeks, Shanghai SINO-British SIPPR/BK Lab Animal Ltd.) using a 25-gauge needle.
as §2, §3, §4, §5

[4] = MLN0128 alone at 0.3 mg/kg, QD×21
[5] = MLN8237 alone at 3 mg/kg, QD×21
[6] = MLN8237 alone at 20 mg/kg, QD×21

## CC(C)n1nc(-c2ccc3oc(N)nc3c2)c2c(N)ncnc21 [MLN0128, 3-(2-amino-1,3-benzoxazol-5-yl)-1-(propan-2-yl)-1H-pyrazolo [3,4-d] pyrimidin-4-amine]
[1]; 0.3 mg/kg MLN0128, QD
  Average tumor volume at day 21: 539.1 mm^3
[1]; 1 mg/kg MLN0128, QD × 3/week
  Average tumor volume at day 21: 475.6 mm^3
[1]; MLN0128 at 0.3 mg/kg alone, QD×21
  effect on growth of PHTX-14B xenografts: significantly delayed growth
[1]; MLN0128 at 1.0 mg/kg alone
  effect on growth of PHTX-14B xenografts: significantly delayed growth
[2]; 0.3 mg/kg MLN0128, QD
  Average tumor volume at day 21: 1354.1 mm^3
[2]; 1 mg/kg MLN0128, QD × 3/week
  Average tumor volume at day 21: 974.8 mm^3
[2]; [4]
  effect on growth of PHTX-147B xenografts: responded moderately
[2]; MLN0128 alone at 1.0 mg/kg, QD×3/wk×3
  effect on growth of PHTX-147B xenografts: significantly delayed the growth
[3]; 0.3 mg/kg MLN0128, QD
  Average tumor volume at day 21: 524.5 mm^3
[3]; 1 mg/kg MLN0128, QD × 3/week
  Average tumor volume at day 21: 696.8 mm^3
[3]; [4]
  effect on growth of SUM149PT xenografts: significantly delayed the growth
[3]; MLN0128 alone at 1.0 mg/kg, QD×3/wk×3 weeks
  effect on growth of SUM149PT xenografts: only responded lightly

## COc1cc(Nc2ncc3c(n2)-c2ccc(Cl)cc2C(c2c(F)cccc2OC)=NC3)ccc1C(=O)[O-].O.[Na+] [MLN8237, sodium 4-{[9-chloro-7-(2-fluoro-6-methoxyphenyl)-5H-pyrimido[5,4-d][2]benzazepin-2-yl]amino}-2-methoxybenzoate monohydrate]
[1]; 3 mg/kg MLN8237, QD
  Average tumor volume at day 21: 795.1 mm^3
[1]; 20 mg/kg MLN8237, QD
  Average tumor volume at day 21: 533.9 mm^3
[1]; MLN8237 at 3 mg/kg alone, QD×21
  antitumor activity in PHTX-14B xenografts: limited and not significant
[1]; MLN8237 at 20 mg/kg alone, QD×21
  effect on growth of PHTX-14B xenografts: significantly delayed growth
[2]; 3 mg/kg MLN8237, QD
  Average tumor volume at day 21: 1951.9 mm^3
[2]; 20 mg/kg MLN8237, QD
  Average tumor volume at day 21: 1694.9 mm^3
[2]; [5]
  effect on PHTX-147B xenograft growth: only slight or no effect
[2]; [6]
  effect on PHTX-147B xenograft growth: only slight or no effect
[3]; 3 mg/kg MLN8237, QD
  Average tumor volume at day 21: 613.4 mm^3
[3]; 20 mg/kg MLN8237, QD
  Average tumor volume at day 21: 451.6 mm^3
[3]; [5]
  effect on growth of SUM149PT xenografts: significantly delayed the growth
[3]; [6]
  effect on growth of SUM149PT xenografts: significantly delayed the growth
